According to ChEMBL document CHEMBL5143732 (J Med Chem, 2022):
Values after ≈ are worked out from the molar mass of the structure shown. Active and inactive are the calls of the source. The calls are words filed in the database; no cut-off is given here.

Columns and labels:
[1] = Therapeutic index ratio of MTD for acute toxicity in iv dosed SPF ICR mouse to ED50 for antifungal activity against Candida albicans ATTCC 14053 infected in SPF kunming mouse; format: organism-based; conditions: in vivo, read-out: TI
[2] = Observed MRT infinity in ICR (CD-1) mouse at 1 mg/kg, iv measured upto 24 hrs; format: ADME, organism-based; conditions: in vivo
Pichia kudriavzevii [3] = experiment: Potency index, ratio of AMD MIC to test compound MIC for antifungal activity against Candida krusei; format: functional
Pichia kudriavzevii [4] = experiment: Antifungal activity against Candida krusei ATCC 6258 assessed as inhibition of fungal growth measured after 48 hrs by CLSI based agar dilution method; format: functional
[5] = Observed volume of distribution at steady state in ICR (CD-1) mouse at 1 mg/kg, iv measured upto 24 hrs; format: ADME, organism-based; conditions: in vivo, read-out: Vdss
Cryptococcus neoformans [6] = experiment: Potency index, ratio of AMD MIC to test compound MIC for antifungal activity against Cryptococcus neoformans; format: functional
Pichia kudriavzevii [7] = experiment: Antifungal activity against Candida krusei assessed as inhibition of fungal growth measured after 48 hrs by CLSI based agar dilution method; format: functional
Candida parapsilosis [8] = experiment: Potency index, ratio of AMD MIC to test compound MIC for antifungal activity against Candida parapsilosis; format: functional
Cryptococcus neoformans [9] = experiment: Antifungal activity against Cryptococcus neoformans ATCC 32609 assessed as inhibition of fungal growth measured after 48 hrs by CLSI based agar dilution method; format: functional
[10] = Observed AUC infinity in ICR (CD-1) mouse at 1 mg/kg, iv measured upto 24 hrs; format: ADME, organism-based; parameters: dose 1 mg/kg, time < 24 hrs, route iv; conditions: in vivo; for AUC(0-inf): ICR (CD-1)
[11] = AUClast in ICR (CD-1) mouse at 1 mg/kg, iv measured upto 24 hrs; format: ADME, organism-based; parameters: dose 1 mg/kg, time < 24 hrs, route iv; conditions: in vivo; for AUC(0-t) at 24 h: ICR (CD-1)
[12] = Acute toxicity in SPF ICR mouse assessed as polypnea upto 7.5 mg/kg, iv administered on day 1 and measured for 14 days; format: organism-based; conditions: in vivo, 336 h, time 14 day
[13] = Observed clearance in ICR (CD-1) mouse at 1 mg/kg, iv measured upto 24 hrs; format: ADME, organism-based; parameters: dose 1 mg/kg, time < 24 hrs, route iv; conditions: in vivo
Candida parapsilosis [14] = experiment: Antifungal activity against Candida parapsilosis assessed as inhibition of fungal growth measured after 48 hrs by CLSI based agar dilution method; format: functional; conditions: Lodderomyces parapsilosis
[15] = Acute toxicity in SPF ICR mouse assessed as prostration at 15 to 30 mg/kg, iv administered on day 1 and measured for 14 days; format: organism-based; conditions: in vivo, 336 h, dose 15-30 mg/kg, time 14 day
Candida tropicalis [16] = experiment: Potency index, ratio of AMD MIC to test compound MIC for antifungal activity against Candida tropicalis; format: functional
Candida albicans [17] = experiment: Antifungal activity against Candida albicans assessed as inhibition of fungal growth measured after 48 hrs by CLSI based agar dilution method; format: functional
Candida albicans [18] = experiment: Potency index, ratio of AMD MIC to test compound MIC for antifungal activity against Candida albicans; format: functional
[19] = Aqueous solubility of compound at pH 6.8; format: physicochemical; conditions: buffer
[20] = Elimination half life in ICR (CD-1) mouse at 1 mg/kg, iv measured upto 24 hrs; format: ADME, organism-based; conditions: in vivo, read-out: beta t1/2 (converted)
Candida albicans [21] = experiment: Antifungal activity against Candida albicans ATTCC 14053 infected in SPF Kunming mouse assessed as increase in mouse survival pre-infected for 1 hr followed by compound addition and measured after 7 to 14 days; format: functional; conditions: time 7-14 day
Nakaseomyces glabratus = experiment: Potency index, ratio of AMD MIC to test compound MIC for antifungal activity against Candida glabrata; format: functional
[22] = Hemolytic activity in human RBC measured after 1 hr; format: toxicity, cell-based, Erythrocyte; conditions: red blood cells (erythrocytes)
[23] = Acute toxicity in SPF ICR mouse assessed as prostration upto 7.5 mg/kg, iv administered on day 1 and measured for 14 days; format: organism-based; conditions: in vivo, 336 h, time 14 day
Candida tropicalis [24] = experiment: Antifungal activity against Candida tropicalis assessed as inhibition of fungal growth measured after 48 hrs by CLSI based agar dilution method; format: functional
[25] = Acute toxicity in iv dosed SPF ICR mouse assessed as maximum tolerated measured for 14 days; format: organism-based; conditions: in vivo, dose 30 mg/kg, time 14 day
[26] = Acute toxicity in SPF ICR mouse assessed as polypnea at 15 to 30 mg/kg, iv administered on day 1 and measured for 14 days; format: organism-based; conditions: in vivo, 336 h, dose 15-30 mg/kg, time 14 day
Lipid bilayer [27] = experiment: Induction of membrane disruption in inner membrane mimic POPC/ergosterol (10:1) large unilamellar vesicles assessed as change in morphology by transmission electron microscopic analysis; format: cell membranes
Lipid bilayer [28] = experiment: Induction of membrane disruption in inner membrane mimic POPC/ergosterol (10:1) large unilamellar vesicles assessed as change in liposomal integrity by transmission electron microscopic analysis; format: cell membranes
[29] = route iv, dose 1 mg/kg, time < 24 hrs, read-out: CL

Compound | MRT inf [2] | MIC (Pichia kudriavzevii [4]) | Vd [5] | MIC (Pichia kudriavzevii [7]) | MIC (Cryptococcus neoformans [9]) | AUC(0-inf) [10] | AUC(0-t) at 24 h [11] | clearance [13, 29] | MIC (Candida parapsilosis [14]) | MIC (Candida albicans [17]) | half-life [20] | ED50 (Candida albicans [21]) | HC50 at 1 h [22] | MIC (Candida tropicalis [24]) | MTD at 336 h [25] | also measured
CNCC(=O)N[C@@H]1[C@H](O)[C@H](O[C@H]2/C=C/C=C/C=C/C=C/C=C/C=C/C=C/[C@H](C)[C@@H](O)[C@@H](C)[C@H](C)OC(=O)C[C@H](O)C[C@H](O)CC[C@@H](O)[C@H](O)C[C@H](O)C[C@]3(O)C[C@H](O)[C@@H](C(=O)NCCN)[C@H](C2)O3)O[C@H](C)[C@H]1O [listing 1 of 2 here] | 29.5 h | 0.125 µg/mL (≈ 0.121 µM) | 0.917 L/kg | 0.25 µg/mL (≈ 0.241 µM) | < 0.008 µg/mL | 31800 ng·h/mL | 17600 ng·h/mL | 0.53 mL/min/kg | 0.03 µg/mL (≈ 0.0289 µM) | < 0.008 µg/mL | 20.5 h | 0.21 mg/kg | 105 µM | 0.03 µg/mL (≈ 0.0289 µM) | 7.5 mg/kg | selectivity ratio [1]: 35.7; Ratio (Pichia kudriavzevii [3]): 8; Ratio (Cryptococcus neoformans [6]): 125; Ratio (Candida parapsilosis [8]): 16; Activity [12]: Non-Toxic; Activity [15]: Toxic; Ratio (Candida tropicalis [16]): 33; Ratio (Candida albicans [18]): 60; solubility [19]: 58.5 µg/mL (≈ 56.4 µM); Ratio (Nakaseomyces glabratus): 66; Activity [23]: Non-Toxic; Activity [26]: Toxic
C[C@@H]1[C@H](O)[C@@H](C)/C=C/C=C/C=C/C=C/C=C/C=C/C=C/[C@H](O[C@@H]2O[C@H](C)[C@@H](O)[C@H](NC(=O)CN)[C@@H]2O)C[C@@H]2O[C@](O)(C[C@@H](O)C[C@@H](O)[C@H](O)CC[C@@H](O)C[C@@H](O)CC(=O)O[C@H]1C)C[C@H](O)[C@H]2C(=O)N1CCN(CCO)CC1 | 10.5 h | 8 µg/mL (≈ 7.32 µM) | 3.06 L/kg | 0.25 µg/mL (≈ 0.229 µM) | 0.25 µg/mL (≈ 0.229 µM) | 3440 ng·h/mL | 3060 ng·h/mL | 4.85 mL/min/kg | 0.5 µg/mL (≈ 0.457 µM) | 0.25 µg/mL (≈ 0.229 µM) | 7.72 h | – | 30.6 µM | 0.25 µg/mL (≈ 0.229 µM) | – | –
CNCC(=O)N[C@@H]1[C@H](O)[C@H](O[C@H]2/C=C/C=C/C=C/C=C/C=C/C=C/C=C/[C@H](C)[C@@H](O)[C@@H](C)[C@H](C)OC(=O)C[C@H](O)C[C@H](O)CC[C@@H](O)[C@H](O)C[C@H](O)C[C@]3(O)C[C@H](O)[C@@H](C(=O)N4CCN(C(C)(C)CO)CC4)[C@H](C2)O3)O[C@H](C)[C@H]1O | 25.4 h | 4 µg/mL (≈ 3.52 µM) | 1.44 L/kg | 1 µg/mL (≈ 0.881 µM) | 1 µg/mL (≈ 0.881 µM) | 17700 ng·h/mL | 10700 ng·h/mL | 0.95 mL/min/kg | 1 µg/mL (≈ 0.881 µM) | 1 µg/mL (≈ 0.881 µM) | 16.4 h | – | 50.7 µM | 1 µg/mL (≈ 0.881 µM) | – | –
C[C@@H]1[C@H](O)[C@@H](C)/C=C/C=C/C=C/C=C/C=C/C=C/C=C/[C@H](O[C@@H]2O[C@H](C)[C@@H](O)[C@H](NC(=O)CN)[C@@H]2O)C[C@@H]2O[C@](O)(C[C@@H](O)C[C@@H](O)[C@H](O)CC[C@@H](O)C[C@@H](O)CC(=O)O[C@H]1C)C[C@H](O)[C@H]2C(=O)NCCN | 24.9 h | 0.5 µg/mL (≈ 0.489 µM) | 1.37 L/kg | 0.06 µg/mL (≈ 0.0586 µM) | < 0.008 µg/mL | 18300 ng·h/mL | 11500 ng·h/mL | 0.913 mL/min/kg | 0.015 µg/mL (≈ 0.0147 µM) | < 0.008 µg/mL | 18.2 h | – | 18.2 µM | 0.03 µg/mL (≈ 0.0293 µM) | – | –
CNCC(=O)N[C@@H]1[C@H](O)[C@H](O[C@H]2/C=C/C=C/C=C/C=C/C=C/C=C/C=C/[C@H](C)[C@@H](O)[C@@H](C)[C@H](C)OC(=O)C[C@H](O)C[C@H](O)CC[C@@H](O)[C@H](O)C[C@H](O)C[C@]3(O)C[C@H](O)[C@@H](C(=O)NCCN)[C@H](C2)O3)O[C@H](C)[C@H]1O [listing 2 of 2 here] | – | – | – | – | – | – | – | – | – | – | – | – | – | – | – | Activity (Lipid bilayer [27]): Active; Activity (Lipid bilayer [28]): Active
C[C@@H]1[C@H](O)[C@@H](C)/C=C/C=C/C=C/C=C/C=C/C=C/C=C/[C@H](O[C@@H]2O[C@H](C)[C@@H](O)[C@H](NC(=O)CCN)[C@@H]2O)C[C@@H]2O[C@](O)(C[C@@H](O)C[C@@H](O)[C@H](O)CC[C@@H](O)C[C@@H](O)CC(=O)O[C@H]1C)C[C@H](O)[C@H]2C(=O)N1CCN(CCO)CC1 | 15.3 h | 8 µg/mL (≈ 7.22 µM) | 2.48 L/kg | 0.5 µg/mL (≈ 0.452 µM) | 0.25 µg/mL (≈ 0.226 µM) | 6210 ng·h/mL | 4890 ng·h/mL | 2.7 mL/min/kg | 0.5 µg/mL (≈ 0.452 µM) | 0.5 µg/mL (≈ 0.452 µM) | 11.2 h | – | 24.4 µM | 1 µg/mL (≈ 0.903 µM) | – | –
C[C@@H]1[C@H](O)[C@@H](C)/C=C/C=C/C=C/C=C/C=C/C=C/C=C/[C@H](O[C@@H]2O[C@H](C)[C@@H](O)[C@H](N)[C@@H]2O)C[C@@H]2O[C@](O)(C[C@@H](O)C[C@@H](O)[C@H](O)CC[C@@H](O)C[C@@H](O)CC(=O)O[C@H]1C)C[C@H](O)[C@H]2C(=O)NCCN | 25.3 h | – | 1.33 L/kg | – | – | 18900 ng·h/mL | 11600 ng·h/mL | 0.896 mL/min/kg | – | – | 17.5 h | 0.32 mg/kg | – | – | 7.5 mg/kg | selectivity ratio [1]: 23.4
C[C@@H]1[C@H](O)[C@@H](C)/C=C/C=C/C=C/C=C/C=C/C=C/C=C/[C@H](O[C@@H]2O[C@H](C)[C@@H](O)[C@H](N)[C@@H]2O)C[C@@H]2O[C@](O)(C[C@@H](O)C[C@@H](O)[C@H](O)CC[C@@H](O)C[C@@H](O)CC(=O)O[C@H]1C)C[C@H](O)[C@H]2C(=O)O [AMPHOTERICIN B] | 28.8 h | – | 6.42 L/kg | – | – | – | – | – | 0.25 µg/mL (≈ 0.271 µM) | 0.5 µg/mL (≈ 0.541 µM) | 19.2 h | 1.08 mg/kg | 4.13 µM | 1 µg/mL (≈ 1.08 µM) | 2.01 mg/kg | AUC ([10]; 24 h): 4476 ng·h/mL; AUClast ([11]; 24 h): 2488 ng·h/mL; clearance ([13]; iv, 1 mg/kg, read-out: AUC): 4.02 mL/min/kg
